The text below walks through data of PubChem BioAssay (NCI).

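Growth conditions: 96-well plates. Treatment: test compound, 48 hours, 5 concentrations. Analysis: linear interpolation between bracketing concentrations; unreached endpoints set to highest concentration. Abbreviation: GI50, concentration required for 50% inhibition of growth. TGI: total growth inhibition.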

Among the test systems are EKVX NSCLC; SF-539 CNS; OVCAR-5 ovarian; 786-0 renal; KM12 colon; NCI-H522 lung; MALME-3M melanoma; HCT-15 colon; COLO 205 colon; HCT-116 colon.
Common to all, as to assay: NCI anticancer screen, dose series, 48 h

Turning to `N#C/C(C(=S)Nc1ccccc1)=C1/NN=C2c3ccccc3C(=O)NN21`, the GI50 is 35.3 µM with EKVX NSCLC; 18.7 µM in the assay on SF-539 CNS; 56.1 µM with OVCAR-5 ovarian; 38 µM in the assay with 786-0 renal; 16.1 µM with KM12 colon; 11.8 µM with NCI-H522 lung. Further, the GI50 was 13.9 µM in the assay with MALME-3M melanoma, 27.6 µM in the assay on HCT-15 colon, 24.9 µM in the assay on COLO 205 colon and 29.2 µM with HCT-116 colon. The TGI with EKVX NSCLC is above 100 µM; in the assay on SF-539 CNS it was 40.9 µM; in the assay with OVCAR-5 ovarian it was above 100 µM; in the assay on 786-0 renal, above 100 µM; in the assay with KM12 colon, 58.4 µM; with NCI-H522 lung, 63.3 µM. Moreover, the TGI with MALME-3M melanoma, with HCT-15 colon, in the assay with COLO 205 colon and in the assay with HCT-116 colon was above 100 µM in each case.

In the case of `COC(=O)C(=O)C(C(=O)C=C(C)C)C(=O)C(=O)Nc1ccc(Cl)cc1C` (stereo not given), the TGI in the assay with EKVX NSCLC, in the assay with SF-539 CNS, with OVCAR-5 ovarian, in the assay on 786-0 renal, in the assay on KM12 colon and in the assay with NCI-H522 lung was above 100 µM throughout. Moreover, the TGI with MALME-3M melanoma, in the assay with HCT-15 colon, with COLO 205 colon and with HCT-116 colon was above 100 µM in each case.

For `NC1C2(CCCCCC2)NC(=O)C12CCCCCC2` (stereo not given), the TGI in the assay on EKVX NSCLC, in the assay on SF-539 CNS, in the assay on OVCAR-5 ovarian, with 786-0 renal, in the assay with KM12 colon and with NCI-H522 lung was above 100 µM in each case. Besides, the TGI in the assay on MALME-3M melanoma, in the assay with HCT-15 colon, in the assay on COLO 205 colon and in the assay with HCT-116 colon was above 100 µM throughout.

Take `O=C1C2=C(CC3C(C2)C3(Br)Br)C(=O)C2=C1CC1C(C2)C1(Br)Br` (stereo not given): the TGI in the assay with EKVX NSCLC, with SF-539 CNS, in the assay on OVCAR-5 ovarian, with 786-0 renal, in the assay with KM12 colon and in the assay with NCI-H522 lung was above 100 µM throughout. Also, the TGI in the assay with MALME-3M melanoma, in the assay on HCT-15 colon, with COLO 205 colon and with HCT-116 colon was above 100 µM each time.

For the compound `Nc1c(-c2ccc(Br)cc2)[n+]([O-])c2ccccc2[n+]1[O-]`, the TGI with EKVX NSCLC, with SF-539 CNS, with OVCAR-5 ovarian, in the assay on 786-0 renal, in the assay on KM12 colon and in the assay on NCI-H522 lung was above 100 µM throughout. Besides, the TGI in the assay on MALME-3M melanoma, in the assay on HCT-15 colon, with COLO 205 colon and with HCT-116 colon was above 100 µM throughout.

Turning to `O=C(C[C@@H](C(=O)NCc1cccc(C(F)(F)F)c1)N1C(=O)[C@@H](N2C(=O)OC[C@@H]2c2ccccc2)[C@H]1/C=C/c1ccccc1)NC1CCN(Cc2ccccc2)CC1`, the GI50 was 15.1 µM with EKVX NSCLC; 2.03 µM in the assay on SF-539 CNS; 13 µM in the assay with OVCAR-5 ovarian; 6.51 µM in the assay with 786-0 renal; 3.93 µM in the assay with KM12 colon; 2.81 µM in the assay on NCI-H522 lung. In addition, the GI50 in the assay with MALME-3M melanoma is 2.78 µM; with HCT-15 colon, 10.9 µM; in the assay with COLO 205 colon, 2.48 µM; in the assay on HCT-116 colon, 1.95 µM. For the same compound, the TGI in the assay on EKVX NSCLC came to 41.7 µM; with SF-539 CNS, 3.98 µM; in the assay with OVCAR-5 ovarian, 29.9 µM; in the assay on 786-0 renal it was 22.6 µM; with KM12 colon, 16.7 µM; in the assay on NCI-H522 lung it was 13.2 µM. In addition, the TGI in the assay on MALME-3M melanoma turned out to be 7.39 µM; in the assay with HCT-15 colon, 35.2 µM; with COLO 205 colon, 7.12 µM; in the assay on HCT-116 colon, 4.04 µM.

Regarding `COc1ccc(C(=O)/C=C/c2cccnc2Nc2cc(OC)c(OC)c(OC)c2)cc1`, the GI50 in the assay with EKVX NSCLC was 5.11 µM; with SF-539 CNS, 1.81 µM; with OVCAR-5 ovarian it was 3.36 µM; in the assay with 786-0 renal it was 1.22 µM; in the assay on KM12 colon it was 0.53 µM; in the assay on NCI-H522 lung it was 0.93 µM. The GI50 is 6.32 µM in the assay on MALME-3M melanoma, 0.884 µM in the assay with HCT-15 colon, 1.95 µM in the assay with COLO 205 colon and 0.54 µM in the assay with HCT-116 colon. In addition, the TGI worked out at 19.2 µM with EKVX NSCLC; 5.62 µM in the assay on SF-539 CNS; 10 µM in the assay on OVCAR-5 ovarian; 2.96 µM in the assay with 786-0 renal; 2.79 µM in the assay on KM12 colon; 2.65 µM with NCI-H522 lung. The TGI stood at 20.1 µM in the assay with MALME-3M melanoma, 3.86 µM with HCT-15 colon, 6.12 µM in the assay with COLO 205 colon and 2.1 µM in the assay with HCT-116 colon.

Consider `CC(C)(C)OC(=O)N(CCCN(CCn1c2c(c3ccccc3c1=O)C(=O)c1ccccc1-2)C(=O)OC(C)(C)C)CCn1c2c(c3ccccc3c1=O)C(=O)c1ccccc1-2`, for which the GI50 in the assay with EKVX NSCLC is above 50 µM; with SF-539 CNS, above 50 µM; in the assay on OVCAR-5 ovarian, above 50 µM; in the assay with 786-0 renal, 16.5 µM; with KM12 colon, above 50 µM; in the assay on NCI-H522 lung, 47.6 µM. The GI50 in the assay on MALME-3M melanoma is above 50 µM; in the assay with HCT-15 colon, 31.1 µM; in the assay on COLO 205 colon, above 50 µM; in the assay with HCT-116 colon, 22.7 µM. Besides, the TGI in the assay with EKVX NSCLC, in the assay on SF-539 CNS, in the assay with OVCAR-5 ovarian, in the assay with 786-0 renal, with KM12 colon and with NCI-H522 lung was above 50 µM throughout. Moreover, the TGI in the assay on MALME-3M melanoma, in the assay on HCT-15 colon, with COLO 205 colon and with HCT-116 colon was above 50 µM in each case.

For `COc1cc(C(=O)O[C@H](C(N)=O)[C@]2(C)CO2)c2ccccc2c1`, the GI50 in the assay on EKVX NSCLC is 18 µM; in the assay with SF-539 CNS, 2.41 µM; in the assay with OVCAR-5 ovarian it was 11.5 µM; with 786-0 renal, 5.08 µM; with KM12 colon it was 15.6 µM; in the assay on NCI-H522 lung it was 33.2 µM. Also, the GI50 is 16.2 µM in the assay with MALME-3M melanoma, 23.8 µM in the assay on HCT-15 colon, 16.6 µM with COLO 205 colon and 5.21 µM in the assay on HCT-116 colon. The TGI in the assay on EKVX NSCLC was 50 µM; in the assay on SF-539 CNS, 7.55 µM; in the assay on OVCAR-5 ovarian, 33.1 µM; with 786-0 renal, 17.3 µM; in the assay with KM12 colon, 32.4 µM; in the assay on NCI-H522 lung, above 100 µM. For the same compound, the TGI in the assay on MALME-3M melanoma came to 36.5 µM; in the assay on HCT-15 colon, 70.6 µM; in the assay on COLO 205 colon, 39.7 µM; with HCT-116 colon it was 15.8 µM.
